Activity calls are given as the source filed them. The calls are words filed in the database; no cut-off is given here.
Legend:
Type in all cases: functional
[1] = Cytotoxicity against human Caki1 cells at 10 uM after 48 hrs by SRB assay; conditions: CAKI-1, 48 h, read-out: GI
[2] = Cytotoxicity against human RXF393 cells at 10 uM after 48 hrs by SRB assay; conditions: RXF 393, 48 h, read-out: GI
SN12C = assay: Cytotoxicity against human SN12C cells at 10 uM after 48 hrs by SRB assay; conditions: read-out: GI
[3] = Cytotoxicity against human TK10 cells at 10 uM after 48 hrs by SRB assay; conditions: TK-10, 48 h, read-out: GI
[4] = Cytotoxicity against human UO31 cells at 10 uM after 48 hrs by SRB assay; conditions: UO-31, 48 h, read-out: GI
[5] = Cytotoxicity against human PC3 cells at 10 uM after 48 hrs by SRB assay; conditions: PC-3, 48 h, read-out: GI
DU-145 = assay: Cytotoxicity against human DU145 cells at 10 uM after 48 hrs by SRB assay
MCF7 = assay: Cytotoxicity against human MCF7 cells at 10 uM after 48 hrs by SRB assay; conditions: MCF7, 48 h, read-out: GI
MDA-MB-231 = assay: Cytotoxicity against human MDA-MB-231 cells at 10 uM after 48 hrs by SRB assay
[6] = Cytotoxicity against human Hs 578T cells at 10 uM after 48 hrs by SRB assay; conditions: read-out: GI
[7] = Cytotoxicity against human BT549 cells at 10 uM after 48 hrs by SRB assay; conditions: BT-549, 48 h, read-out: GI
T47D = assay: Cytotoxicity against human T47D cells at 10 uM after 48 hrs by SRB assay; conditions: read-out: GI
MDA-MB-468 = assay: Cytotoxicity against human MDA-MB-468 cells at 10 uM after 48 hrs by SRB assay; conditions: MDA-MB-468, 48 h, read-out: GI
CCRF-CEM = assay: Cytotoxicity against human CCRF-CEM cells at 10 uM after 48 hrs by SRB assay; conditions: read-out: GI
K562 = assay: Cytotoxicity against human K562 cells at 10 uM after 48 hrs by SRB assay; conditions: K562, 48 h, read-out: GI
[8] = Cytotoxicity against human MOLT4 cells at 10 uM after 48 hrs by SRB assay; conditions: MOLT-4, 48 h, read-out: GI
[9] = Cytotoxicity against human RPMI8226 cells at 10 uM after 48 hrs by SRB assay; conditions: RPMI-8226, 48 h, read-out: GI
SR = assay: Cytotoxicity against human SR cells at 10 uM after 48 hrs by SRB assay; conditions: read-out: GI
A549 = assay: Cytotoxicity against human A549 cells at 10 uM after 48 hrs by SRB assay; conditions: A549, 48 h, read-out: GI
HOP-62 = assay: Cytotoxicity against human HOP62 cells at 10 uM after 48 hrs by SRB assay
[10] = Cytotoxicity against human HOP92 cells at 10 uM after 48 hrs by SRB assay; conditions: HOP-92, 48 h, read-out: GI
NCI-H226 = assay: Cytotoxicity against human NCI-H226 cells at 10 uM after 48 hrs by SRB assay; conditions: NCI-H226, 48 h, read-out: GI
NCI-H23 = assay: Cytotoxicity against human NCI-H23 cells at 10 uM after 48 hrs by SRB assay; conditions: NCI-H23, 48 h, read-out: GI
NCI-H322M = assay: Cytotoxicity against human NCI-H322M cells at 10 uM after 48 hrs by SRB assay
NCI-H460 = assay: Cytotoxicity against human NCI-H460 cells at 10 uM after 48 hrs by SRB assay; conditions: NCI-H460, 48 h, read-out: GI
NCI-H522 = assay: Cytotoxicity against human NCI-H522 cells at 10 uM after 48 hrs by SRB assay; conditions: NCI-H522, 48 h, read-out: GI
[11] = Cytotoxicity against human COLO205 cells at 10 uM after 48 hrs by SRB assay; conditions: COLO 205, 48 h, read-out: GI
HCC 2998 = assay: Cytotoxicity against human HCC2998 cells at 10 uM after 48 hrs by SRB assay
[12] = Cytotoxicity against human HCT116 cells at 10 uM after 48 hrs by SRB assay; conditions: HCT-116, 48 h, read-out: GI
[13] = Cytotoxicity against human HCT15 cells at 10 uM after 48 hrs by SRB assay; conditions: HCT-15, 48 h, read-out: GI
HT-29 = assay: Cytotoxicity against human HT-29 cells at 10 uM after 48 hrs by SRB assay; conditions: HT-29, 48 h, read-out: GI
KM12 = assay: Cytotoxicity against human KM12 cells at 10 uM after 48 hrs by SRB assay; conditions: KM12, 48 h, read-out: GI
[14] = Cytotoxicity against human SW620 cells at 10 uM after 48 hrs by SRB assay; conditions: SW-620, 48 h, read-out: GI
[15] = Cytotoxicity against human SF268 cells at 10 uM after 48 hrs by SRB assay; conditions: SF-268, 48 h, read-out: GI
[16] = Cytotoxicity against human SF295 cells at 10 uM after 48 hrs by SRB assay; conditions: SF-295, 48 h, read-out: GI
[17] = Cytotoxicity against human SF539 cells at 10 uM after 48 hrs by SRB assay; conditions: SF-539, 48 h, read-out: GI
[18] = Cytotoxicity against human SNB19 cells at 10 uM after 48 hrs by SRB assay; conditions: SNB-19, 48 h, read-out: GI
[19] = Cytotoxicity against human SNB75 cells at 10 uM after 48 hrs by SRB assay; conditions: SNB-75, 48 h, read-out: GI
U-251 = assay: Cytotoxicity against human U251 cells at 10 uM after 48 hrs by SRB assay; conditions: U-251, 48 h, read-out: GI
LOX IMVI = assay: Cytotoxicity against human LOXIMVI cells at 10 uM after 48 hrs by SRB assay
Malme-3M = assay: Cytotoxicity against human MALME-3M cells at 10 uM after 48 hrs by SRB assay
M14 = assay: Cytotoxicity against human M14 cells at 10 uM after 48 hrs by SRB assay; conditions: M14, 48 h, read-out: GI
MDA-MB-435 = assay: Cytotoxicity against human MDA-MB-435 cells at 10 uM after 48 hrs by SRB assay; conditions: MDA-MB-435, 48 h, read-out: GI
SK-MEL-28 = assay: Cytotoxicity against human SK-MEL-28 cells at 10 uM after 48 hrs by SRB assay; conditions: SK-MEL-28, 48 h, read-out: GI
SK-MEL-5 = assay: Cytotoxicity against human SK-MEL-5 cells at 10 uM after 48 hrs by SRB assay; conditions: SK-MEL-5, 48 h, read-out: GI
UACC-257 = assay: Cytotoxicity against human UACC257 cells at 10 uM after 48 hrs by SRB assay
[20] = Cytotoxicity against human UACC62 cells at 10 uM after 48 hrs by SRB assay; conditions: UACC-62, 48 h, read-out: GI
[21] = Cytotoxicity against human OVCAR3 cells at 10 uM after 48 hrs by SRB assay; conditions: OVCAR-3, 48 h, read-out: GI
OVCAR-4 = assay: Cytotoxicity against human OVCAR4 cells at 10 uM after 48 hrs by SRB assay
OVCAR-5 = assay: Cytotoxicity against human OVCAR5 cells at 10 uM after 48 hrs by SRB assay
[22] = Cytotoxicity against human OVCAR8 cells at 10 uM after 48 hrs by SRB assay; conditions: OVCAR-8, 48 h, read-out: GI
[23] = Cytotoxicity against human SKOV3 cells at 10 uM after 48 hrs by SRB assay; conditions: SK-OV-3, 48 h, read-out: GI
786-0 = assay: Cytotoxicity against human 786-0 cells at 10 uM after 48 hrs by SRB assay; conditions: 786-0, 48 h, read-out: GI
A498 = assay: Cytotoxicity against human A498 cells at 10 uM after 48 hrs by SRB assay; conditions: A498, 48 h, read-out: GI
ACHN = assay: Cytotoxicity against human ACHN cells at 10 uM after 48 hrs by SRB assay; conditions: read-out: GI

Structure (SMILES): Cc1nc2ccc(Nc3nc(Nc4ccc(F)cc4)nc(N4CCCCC4)n3)cc2n1Cc1ccccc1
- inhibition of growth at 10 µM [1]: 1.51%
- inhibition of growth at 10 µM [2]: 13.8%
- inhibition of growth at 10 µM (SN12C): 3.75%
- inhibition of growth at 10 µM [3]: 7.88%
- inhibition of growth at 10 µM [4]: 15.7%
- inhibition of growth at 10 µM [5]: 21.3%
- growth inhibition (GI) (DU-145): inactive
- inhibition of growth at 10 µM (MCF7): 38.8%
- growth inhibition (GI) (MDA-MB-231): inactive
- inhibition of growth at 10 µM [6]: 0.58%
- inhibition of growth at 10 µM [7]: 5.37%
- inhibition of growth at 10 µM (T47D): 34.7%
- inhibition of growth at 10 µM (MDA-MB-468): 17.2%
- inhibition of growth at 10 µM (CCRF-CEM): 20.5%
- inhibition of growth at 10 µM (K562): 26.5%
- inhibition of growth at 10 µM [8]: 30.7%
- inhibition of growth at 10 µM [9]: 25.2%
- inhibition of growth at 10 µM (SR): 50.7%
- inhibition of growth at 10 µM (A549): 29.2%
- growth inhibition (GI) (HOP-62): inactive
- inhibition of growth at 10 µM [10]: 24.7%
- inhibition of growth at 10 µM (NCI-H226): 12.3%
- inhibition of growth at 10 µM (NCI-H23): 5.43%
- growth inhibition (GI) (NCI-H322M): inactive
- inhibition of growth at 10 µM (NCI-H460): 17.7%
- inhibition of growth at 10 µM (NCI-H522): 30.1%
- inhibition of growth at 10 µM [11]: 2.32%
- growth inhibition (GI) (HCC 2998): inactive
- inhibition of growth at 10 µM [12]: 26.5%
- inhibition of growth at 10 µM [13]: 16.6%
- inhibition of growth at 10 µM (HT-29): 28.9%
- inhibition of growth at 10 µM (KM12): 8.36%
- inhibition of growth at 10 µM [14]: 5.34%
- inhibition of growth at 10 µM [15]: 4.31%
- inhibition of growth at 10 µM [16]: 9.64%
- inhibition of growth at 10 µM [17]: 2.48%
- inhibition of growth at 10 µM [18]: 17.5%
- inhibition of growth at 10 µM [19]: 4.31%
- inhibition of growth at 10 µM (U-251): 21.5%
- growth inhibition (GI) (LOX IMVI): inactive
- growth inhibition (GI) (Malme-3M): inactive
- inhibition of growth at 10 µM (M14): 7.86%
- inhibition of growth at 10 µM (MDA-MB-435): 3.66%
- inhibition of growth at 10 µM (SK-MEL-28): 3.66%
- inhibition of growth at 10 µM (SK-MEL-5): 22.9%
- growth inhibition (GI) (UACC-257): inactive
- inhibition of growth at 10 µM [20]: 9.98%
- inhibition of growth at 10 µM [21]: 0.84%
- growth inhibition (GI) (OVCAR-4): inactive
- growth inhibition (GI) (OVCAR-5): inactive
- inhibition of growth at 10 µM [22]: 6.9%
- inhibition of growth at 10 µM [23]: 2.27%
- inhibition of growth at 10 µM (786-0): 11.8%
- inhibition of growth at 10 µM (A498): 24.9%
- inhibition of growth at 10 µM (ACHN): 3.6%

Source: ChEMBL document CHEMBL3745645, “Synthesis, in vitro antitumor activity, dihydrofolate reductase inhibition, DNA intercalation and structure-activity relationship studies of 1,3,5-triazine analogues” (Bioorg Med Chem Lett, 2016)
